According to ChEMBL document CHEMBL5303573, “Mapping human microbiome drug metabolism by gut bacteria and their genes” (Nature, 2019):

Conditions: anaerostipes sp., 12 h, 2 µM
Description: The drug is tested on Anaerostipes sp. strain: fecal isolate for biotransformation. The drug concentrations were measured before and after a 12-h incubation by liquid-chromatography-coupled mass spectrometry (LC–MS)
In the case of `CC(=O)CCCCn1c(=O)c2c(ncn2C)n(C)c1=O` [PENTOXIFYLLINE], the “Bacterial Biotransformation” value is reported as “Compound NOT metabolized”.

Assay: The drug is tested on Enterococcus faecalis strain: V583 for biotransformation. The drug concentrations were measured before and after a 12-h incubation by liquid-chromatography-coupled mass spectrometry (LC–MS)
Conditions: 2 µM
In the case of `CC(=O)CCCCn1c(=O)c2c(ncn2C)n(C)c1=O` [PENTOXIFYLLINE], the “Bacterial Biotransformation” value is reported as “Compound NOT metabolized”. In the case of `COc1cc2nc(N3CCN(C(=O)C4COc5ccccc5O4)CC3)nc(N)c2cc1OC.CS(=O)(=O)O` (configuration not stated) [DOXAZOSIN MESYLATE], the “Bacterial Biotransformation” value is reported as “Compound NOT metabolized”.

Assay: The drug is tested on Ruminococcus lactaris strain: ATCC29176 for biotransformation. The drug concentrations were measured before and after a 12-h incubation by liquid-chromatography-coupled mass spectrometry (LC–MS)
Conditions: 2 µM
With `CC(=O)CCCCn1c(=O)c2c(ncn2C)n(C)c1=O` [PENTOXIFYLLINE] the “Bacterial Biotransformation” value was “Compound NOT metabolized”. With `COc1cc2nc(N3CCN(C(=O)C4COc5ccccc5O4)CC3)nc(N)c2cc1OC.CS(=O)(=O)O` (configuration not stated) [DOXAZOSIN MESYLATE] the “Bacterial Biotransformation” value was “Compound NOT metabolized”.

Assay: The drug is tested on Escherichia coli strain: BW25113 for biotransformation. The drug concentrations were measured before and after a 12-h incubation by liquid-chromatography-coupled mass spectrometry (LC–MS)
Conditions: 2 µM
In the case of `CC(=O)CCCCn1c(=O)c2c(ncn2C)n(C)c1=O` [PENTOXIFYLLINE], the “Bacterial Biotransformation” value is reported as “Compound NOT metabolized”. With `COc1cc2nc(N3CCN(C(=O)C4COc5ccccc5O4)CC3)nc(N)c2cc1OC.CS(=O)(=O)O` (configuration not stated) [DOXAZOSIN MESYLATE] the “Bacterial Biotransformation” value was “Compound metabolized”.

Assay: The drug is tested on Clostridium sp. strain: fecal isolate for biotransformation. The drug concentrations were measured before and after a 12-h incubation by liquid-chromatography-coupled mass spectrometry (LC–MS)
Conditions: 2 µM
With `CC(=O)CCCCn1c(=O)c2c(ncn2C)n(C)c1=O` [PENTOXIFYLLINE] the “Bacterial Biotransformation” value was “Compound NOT metabolized”. For `COc1cc2nc(N3CCN(C(=O)C4COc5ccccc5O4)CC3)nc(N)c2cc1OC.CS(=O)(=O)O` (configuration not stated) [DOXAZOSIN MESYLATE], the “Bacterial Biotransformation” value was “Compound metabolized”.

Assay: The drug is tested on Clostridium sporogenes strain: ATCC15579 for biotransformation. The drug concentrations were measured before and after a 12-h incubation by liquid-chromatography-coupled mass spectrometry (LC–MS)
Conditions: 2 µM
In the case of `CC(=O)CCCCn1c(=O)c2c(ncn2C)n(C)c1=O` [PENTOXIFYLLINE], the “Bacterial Biotransformation” value is reported as “Compound NOT metabolized”.

Conditions: bacteroides fragilis, 12 h, 2 µM
Description: The drug is tested on Bacteroides fragilis strain: 3397 (T10) for biotransformation. The drug concentrations were measured before and after a 12-h incubation by liquid-chromatography-coupled mass spectrometry (LC–MS)
For `CC(=O)CCCCn1c(=O)c2c(ncn2C)n(C)c1=O` [PENTOXIFYLLINE], the “Bacterial Biotransformation” value was “Compound NOT metabolized”. In the case of `COc1cc2nc(N3CCN(C(=O)C4COc5ccccc5O4)CC3)nc(N)c2cc1OC.CS(=O)(=O)O` (configuration not stated) [DOXAZOSIN MESYLATE], the “Bacterial Biotransformation” value is reported as “Compound NOT metabolized”.

Assay: The drug is tested on Bacteroides caccae strain: ATCC43185 for biotransformation. The drug concentrations were measured before and after a 12-h incubation by liquid-chromatography-coupled mass spectrometry (LC–MS)
Conditions: 2 µM
For `CC(=O)CCCCn1c(=O)c2c(ncn2C)n(C)c1=O` [PENTOXIFYLLINE], the “Bacterial Biotransformation” value was “Compound NOT metabolized”. With `COc1cc2nc(N3CCN(C(=O)C4COc5ccccc5O4)CC3)nc(N)c2cc1OC.CS(=O)(=O)O` (configuration not stated) [DOXAZOSIN MESYLATE] the “Bacterial Biotransformation” value was “Compound NOT metabolized”.

Assay: The drug is tested on Clostridium scindens strain: ATCC35704 for biotransformation. The drug concentrations were measured before and after a 12-h incubation by liquid-chromatography-coupled mass spectrometry (LC–MS)
Conditions: 2 µM
For `COc1cc2nc(N3CCN(C(=O)C4COc5ccccc5O4)CC3)nc(N)c2cc1OC.CS(=O)(=O)O` (configuration not stated) [DOXAZOSIN MESYLATE], the “Bacterial Biotransformation” value was “Compound NOT metabolized”.

Assay: The drug is tested on Bifidobacterium breve strain: DSM20213 for biotransformation. The drug concentrations were measured before and after a 12-h incubation by liquid-chromatography-coupled mass spectrometry (LC–MS)
Conditions: 2 µM
With `CC(=O)CCCCn1c(=O)c2c(ncn2C)n(C)c1=O` [PENTOXIFYLLINE] the “Bacterial Biotransformation” value was “Compound NOT metabolized”. In the case of `COc1cc2nc(N3CCN(C(=O)C4COc5ccccc5O4)CC3)nc(N)c2cc1OC.CS(=O)(=O)O` (configuration not stated) [DOXAZOSIN MESYLATE], the “Bacterial Biotransformation” value is reported as “Compound NOT metabolized”.

Assay: The drug is tested on Providencia rettgeri strain: DSM1131 for biotransformation. The drug concentrations were measured before and after a 12-h incubation by liquid-chromatography-coupled mass spectrometry (LC–MS)
Assay type: ADME
Parameters: dose 2 uM, timepoint 0 vs 12 hours
Conditions: 2 µM
In the case of `COc1cc2nc(N3CCN(C(=O)C4COc5ccccc5O4)CC3)nc(N)c2cc1OC.CS(=O)(=O)O` (configuration not stated) [DOXAZOSIN MESYLATE], the “Bacterial Biotransformation” value is reported as “Compound NOT metabolized”.

Conditions: parabacteroides johnsonii, 12 h, 2 µM
Description: The drug is tested on Parabacteroides johnsonii strain: DSM18315 for biotransformation. The drug concentrations were measured before and after a 12-h incubation by liquid-chromatography-coupled mass spectrometry (LC–MS)
With `CC(=O)CCCCn1c(=O)c2c(ncn2C)n(C)c1=O` [PENTOXIFYLLINE] the “Bacterial Biotransformation” value was “Compound NOT metabolized”. With `COc1cc2nc(N3CCN(C(=O)C4COc5ccccc5O4)CC3)nc(N)c2cc1OC.CS(=O)(=O)O` (configuration not stated) [DOXAZOSIN MESYLATE] the “Bacterial Biotransformation” value was “Compound NOT metabolized”.

Assay: The drug is tested on Bacteroides cellulosilyticus strain: DSM14838 for biotransformation. The drug concentrations were measured before and after a 12-h incubation by liquid-chromatography-coupled mass spectrometry (LC–MS)
Conditions: 2 µM
In the case of `CC(=O)CCCCn1c(=O)c2c(ncn2C)n(C)c1=O` [PENTOXIFYLLINE], the “Bacterial Biotransformation” value is reported as “Compound NOT metabolized”. For `COc1cc2nc(N3CCN(C(=O)C4COc5ccccc5O4)CC3)nc(N)c2cc1OC.CS(=O)(=O)O` (configuration not stated) [DOXAZOSIN MESYLATE], the “Bacterial Biotransformation” value was “Compound NOT metabolized”.

Conditions: bacteroides thetaiotaomicron, 12 h, 2 µM
Description: The drug is tested on Bacteroides thetaiotaomicron strain: VPI-5482 for biotransformation. The drug concentrations were measured before and after a 12-h incubation by liquid-chromatography-coupled mass spectrometry (LC–MS)
With `CC(=O)CCCCn1c(=O)c2c(ncn2C)n(C)c1=O` [PENTOXIFYLLINE] the “Bacterial Biotransformation” value was “Compound NOT metabolized”. In the case of `COc1cc2nc(N3CCN(C(=O)C4COc5ccccc5O4)CC3)nc(N)c2cc1OC.CS(=O)(=O)O` (configuration not stated) [DOXAZOSIN MESYLATE], the “Bacterial Biotransformation” value is reported as “Compound NOT metabolized”.

Assay: The drug is tested on Blautia hansenii strain: DSM20583 for biotransformation. The drug concentrations were measured before and after a 12-h incubation by liquid-chromatography-coupled mass spectrometry (LC–MS)
Conditions: 2 µM
In the case of `CC(=O)CCCCn1c(=O)c2c(ncn2C)n(C)c1=O` [PENTOXIFYLLINE], the “Bacterial Biotransformation” value is reported as “Compound NOT metabolized”. In the case of `COc1cc2nc(N3CCN(C(=O)C4COc5ccccc5O4)CC3)nc(N)c2cc1OC.CS(=O)(=O)O` (configuration not stated) [DOXAZOSIN MESYLATE], the “Bacterial Biotransformation” value is reported as “Compound metabolized”.

Conditions: bifidobacterium adolescentis, 12 h, 2 µM
Description: The drug is tested on Bifidobacterium adolescentis strain: ATCC 15703 for biotransformation. The drug concentrations were measured before and after a 12-h incubation by liquid-chromatography-coupled mass spectrometry (LC–MS)
In the case of `CC(=O)CCCCn1c(=O)c2c(ncn2C)n(C)c1=O` [PENTOXIFYLLINE], the “Bacterial Biotransformation” value is reported as “Compound NOT metabolized”. With `COc1cc2nc(N3CCN(C(=O)C4COc5ccccc5O4)CC3)nc(N)c2cc1OC.CS(=O)(=O)O` (configuration not stated) [DOXAZOSIN MESYLATE] the “Bacterial Biotransformation” value was “Compound NOT metabolized”.

Assay: The drug is tested on Odoribacter splanchnicus strain: fecal isolate for biotransformation. The drug concentrations were measured before and after a 12-h incubation by liquid-chromatography-coupled mass spectrometry (LC–MS)
Conditions: 2 µM
In the case of `CC(=O)CCCCn1c(=O)c2c(ncn2C)n(C)c1=O` [PENTOXIFYLLINE], the “Bacterial Biotransformation” value is reported as “Compound NOT metabolized”. In the case of `COc1cc2nc(N3CCN(C(=O)C4COc5ccccc5O4)CC3)nc(N)c2cc1OC.CS(=O)(=O)O` (configuration not stated) [DOXAZOSIN MESYLATE], the “Bacterial Biotransformation” value is reported as “Compound NOT metabolized”.

Conditions: segatella copri, 12 h, 2 µM
Description: The drug is tested on Prevotella copri strain: DSM18205 for biotransformation. The drug concentrations were measured before and after a 12-h incubation by liquid-chromatography-coupled mass spectrometry (LC–MS)
With `CC(=O)CCCCn1c(=O)c2c(ncn2C)n(C)c1=O` [PENTOXIFYLLINE] the “Bacterial Biotransformation” value was “Compound NOT metabolized”. In the case of `COc1cc2nc(N3CCN(C(=O)C4COc5ccccc5O4)CC3)nc(N)c2cc1OC.CS(=O)(=O)O` (configuration not stated) [DOXAZOSIN MESYLATE], the “Bacterial Biotransformation” value is reported as “Compound metabolized”.
